System: Clostridium acetobutylicum strain ATCC 824
Assay: Sequential batch transfer in 24-well culture plates (butanol, residual glucose, butanol yield and productivity)
Assay type: cell-based
Conditions: after 96 hours of culture; for Residual glucose concentration: initial glucose 60 g/L
Procedure: Each well contained 1.5 mL of growth medium. Peptide was added to each well at the indicated concentration (0, 25, 50, and 100 nM). Every 24 hours fresh medium and peptide treatment were added to a new column of wells then 1.5 μL of the previous day culture was transferred to the new well. Wells were harvested for glucose and butanol analysis after 96 hours of growth. Transfers 1, 4, 7, 10, 13, 16, […].
Briefly, Clostridium spores were germinated in a suitable growth medium for 18-24 hours then […] was transferred to 1.5 mL of fresh medium in each of four wells on a 24-well culture plate. Three of the wells had been treated with 25 nM, 50 nM and 100 nM of peptide, respectively while the fourth well was untreated. Thereafter, every 24 hours […] of each subculture was transferred to 1.5 mL of fresh medium that contained the same peptide treatment or no treatment. Transfers of successive subcultures were done for 24 days, and each subculture was grown for 96 hours before being harvested. Culture supernatants were recovered following centrifugation and were analyzed for butanol and residual glucose concentrations. Determination of optimum peptide treatment levels was based on a graphical comparison of the concentration of butanol in each of the four culture wells for sequential transfers 1, 4, 7, 10, 13, 16, 19, 22 and 24.
Clostridium acetobutylicum strain ATCC 824 was used in all experiments and the growth medium used for sequential batch transfer, time course, and continuous culture experiments contained yeast extract, casamino acids, L-cysteine, L-asparagine, phosphate buffer, trace minerals, and 6% glucose. What are believed to be quorum-sensing peptides that were used in the experiments were chemically synthesized peptides SEQ ID NO: 143 (amino acid sequence: SYPGWSW) and SEQ ID NO: 144 (amino acid sequence: ILILISG). Routine growth of the bacteria as well as the sequential batch and time course experiments were conducted in a Form a Scientific Model 1029 anaerobic gas chamber at 32° C. Continuous cultures were performed at 32° C. using duplicate New Brunswick Scientific BioFlo 3000 apparati with a dilution rate of 0.01 volume per hour, 75 rpm agitation, and nitrogen gas sparging. Optical density of culture samples was measured at 600 nm in a Beckman DU 600 series spectrophotometer and glucose was analyzed using a YSI Model 2700 Select Biochemistry Analyzer with internal glucose calibration. Butanol concentrations were determined by measuring experimental and standard samples using a Varian Saturn 3 Gas Chromatograph/Mass Spectrometer and calculating butanol concentrations using standard curves.
(§1) Sequential batch transfer experiments were carried out in 24-well culture plates that contained 1.5 mL of medium per well. Peptide was added to each well at the indicated concentrations of 0 nM (control), 25 nM, 50 nM, or 100 nM. Every 24 hours, fresh medium and peptide treatments were added to a new column of wells. Then, 1.5 uL of the previous day culture was transferred to the new well. Wells were harvested for glucose and butanol analysis after 96 hours of growth; transfers 1, 4, 7, 10, 13, 16, 19, 22, and 24 were analyzed. Two representative experiments are shown in Tables 30 and 31 and FIGS. 14 and 15.
as §1, with “32” for “30”, “33” for “31”, “16” for “14”, “17.” for “15.”

[1] = 25 nM peptide, transfer 1, Expt. 1
[2] = 25 nM peptide, transfer 4, Expt. 1
[3] = 25 nM peptide, transfer 7, Expt. 1
[4] = 25 nM peptide, transfer 10, Expt. 1
[5] = 25 nM peptide, transfer 13, Expt. 1
[6] = 25 nM peptide, transfer 16, Expt. 1
[7] = 25 nM peptide, transfer 19, Expt. 1
[8] = 25 nM peptide, transfer 22, Expt. 1
[9] = 25 nM peptide, transfer 24, Expt. 1
[10] = 50 nM peptide, transfer 1, Expt. 1
[11] = 50 nM peptide, transfer 4, Expt. 1
[12] = 50 nM peptide, transfer 7, Expt. 1
[13] = 50 nM peptide, transfer 10, Expt. 1
[14] = 50 nM peptide, transfer 13, Expt. 1
[15] = 50 nM peptide, transfer 16, Expt. 1

Substance: ILILISG (Derived from Clostridium acetobutylicum SEQ ID NO: 110) [peptide SEQ ID NO: 144]
- Butanol concentration [1]: 1.93 g/L
- Butanol productivity [1]: 0.02 g butanol/L-h
- Butanol yield [1]: 0.03 g butanol/g/glucose
- Butanol concentration (25 nM peptide, transfer 1, Expt. 2 (repeat), Table 58): 1.25 g/L
- Residual glucose concentration [1]: 43.3 g/L
- Residual glucose concentration (25 nM peptide, transfer 1, Expt. 2 (repeat), Table 45): 48.7 g/L
- Butanol concentration [2]: 10.01 g/L
- Butanol productivity [2]: 0.10 g butanol/L-h
- Butanol yield [2]: 0.17 g butanol/g/glucose
- Butanol concentration (25 nM peptide, transfer 4, Expt. 2 (repeat), Table 58): 2.36 g/L
- Residual glucose concentration [2]: 0.0 g/L
- Residual glucose concentration (25 nM peptide, transfer 4, Expt. 2 (repeat), Table 45): 43.6 g/L
- Butanol concentration [3]: 7.82 g/L
- Butanol productivity [3]: 0.08 g butanol/L-h
- Butanol yield [3]: 0.13 g butanol/g/glucose
- Butanol concentration (25 nM peptide, transfer 7, Expt. 2 (repeat), Table 58): 2.26 g/L
- Residual glucose concentration [3]: .01 g/L
- Residual glucose concentration (25 nM peptide, transfer 7, Expt. 2 (repeat), Table 45): 46.5 g/L
- Butanol concentration [4]: 11.88 g/L
- Butanol productivity [4]: 0.12 g butanol/L-h
- Butanol yield [4]: 0.20 g butanol/g/glucose
- Butanol concentration (25 nM peptide, transfer 10, Expt. 2 (repeat), Table 58): 3.56 g/L
- Residual glucose concentration [4]: 0.1 g/L
- Residual glucose concentration (25 nM peptide, transfer 10, Expt. 2 (repeat), Table 45): 42.5 g/L
- Butanol concentration [5]: 7.56 g/L
- Butanol productivity [5]: 0.08 g butanol/L-h
- Butanol yield [5]: 0.13 g butanol/g/glucose
- Butanol concentration (25 nM peptide, transfer 13, Expt. 2 (repeat), Table 58): 9.51 g/L
- Residual glucose concentration [5]: 0.1 g/L
- Residual glucose concentration (25 nM peptide, transfer 13, Expt. 2 (repeat), Table 45): 0.9 g/L
- Butanol concentration [6]: 8.33 g/L
- Butanol productivity [6]: 0.09 g butanol/L-h
- Butanol yield [6]: 0.14 g butanol/g/glucose
- Butanol concentration (25 nM peptide, transfer 16, Expt. 2 (repeat), Table 58): 12.57 g/L
- Residual glucose concentration [6]: 0.0 g/L
- Residual glucose concentration (25 nM peptide, transfer 16, Expt. 2 (repeat), Table 45): 0.1 g/L
- Butanol concentration [7]: 7.52 g/L
- Butanol productivity [7]: 0.08 g butanol/L-h
- Butanol yield [7]: 0.12 g butanol/g/glucose
- Butanol concentration (25 nM peptide, transfer 19, Expt. 2 (repeat), Table 58): 4.42 g/L
- Residual glucose concentration [7]: 0.1 g/L
- Residual glucose concentration (25 nM peptide, transfer 19, Expt. 2 (repeat), Table 45): 0.1 g/L
- Butanol concentration [8]: 13.47 g/L
- Butanol productivity [8]: 0.14 g butanol/L-h
- Butanol yield [8]: 0.22 g butanol/g/glucose
- Butanol concentration (25 nM peptide, transfer 22, Expt. 2 (repeat), Table 58): 3.65 g/L
- Residual glucose concentration [8]: 9.9 g/L
- Residual glucose concentration (25 nM peptide, transfer 22, Expt. 2 (repeat), Table 45): 0.1 g/L
- Butanol concentration [9]: 7.27 g/L
- Butanol productivity [9]: 0.08 g butanol/L-h
- Butanol yield [9]: 0.12 g butanol/g/glucose
- Butanol concentration (25 nM peptide, transfer 24, Expt. 2 (repeat), Table 58): 2.75 g/L
- Residual glucose concentration [9]: 0.0 g/L
- Residual glucose concentration (25 nM peptide, transfer 24, Expt. 2 (repeat), Table 45): 0.1 g/L
- Butanol concentration [10]: 1.90 g/L
- Butanol productivity [10]: 0.02 g butanol/L-h
- Butanol yield [10]: 0.03 g butanol/g/glucose
- Butanol concentration (50 nM peptide, transfer 1, Expt. 2 (repeat), Table 58): 1.29 g/L
- Residual glucose concentration [10]: 41.8 g/L
- Residual glucose concentration (50 nM peptide, transfer 1, Expt. 2 (repeat), Table 45): 47.4 g/L
- Butanol concentration [11]: 9.57 g/L
- Butanol productivity [11]: 0.10 g butanol/L-h
- Butanol yield [11]: 0.16 g butanol/g/glucose
- Butanol concentration (50 nM peptide, transfer 4, Expt. 2 (repeat), Table 58): 2.24 g/L
- Residual glucose concentration [11]: 0.0 g/L
- Residual glucose concentration (50 nM peptide, transfer 4, Expt. 2 (repeat), Table 45): 44.9 g/L
- Butanol concentration [12]: 7.58 g/L
- Butanol productivity [12]: 0.08 g butanol/L-h
- Butanol yield [12]: 0.13 g butanol/g/glucose
- Butanol concentration (50 nM peptide, transfer 7, Expt. 2 (repeat), Table 58): 1.98 g/L
- Residual glucose concentration [12]: 0.0 g/L
- Residual glucose concentration (50 nM peptide, transfer 7, Expt. 2 (repeat), Table 45): 49.8 g/L
- Butanol concentration [13]: 11.09 g/L
- Butanol productivity [13]: 0.12 g butanol/L-h
- Butanol yield [13]: 0.18 g butanol/g/glucose
- Butanol concentration (50 nM peptide, transfer 10, Expt. 2 (repeat), Table 58): 2.26 g/L
- Residual glucose concentration [13]: 0.0 g/L
- Residual glucose concentration (50 nM peptide, transfer 10, Expt. 2 (repeat), Table 45): 48.0 g/L
- Butanol concentration [14]: 7.90 g/L
- Butanol productivity [14]: 0.08 g butanol/L-h
- Butanol yield [14]: 0.13 g butanol/g/glucose
- Butanol concentration (50 nM peptide, transfer 13, Expt. 2 (repeat), Table 58): 4.58 g/L
- Residual glucose concentration [14]: 0.1 g/L
- Residual glucose concentration (50 nM peptide, transfer 13, Expt. 2 (repeat), Table 45): 49.1 g/L
- Butanol concentration [15]: 9.34 g/L
- Butanol productivity [15]: 0.10 g butanol/L-h
- Butanol yield [15]: 0.15 g butanol/g/glucose
- Butanol concentration (50 nM peptide, transfer 16, Expt. 2 (repeat), Table 58): 3.34 g/L
- Residual glucose concentration [15]: 0.0 g/L
- Residual glucose concentration (50 nM peptide, transfer 16, Expt. 2 (repeat), Table 45): 47.7 g/L

Source: US20150031102A1, “METHODS AND COMPOSITIONS FOR ENHANCED PRODUCTION OF BUTANOL BY CLOSTRIDIA” (Butrolix LLC, priority 2012, published 2015)
